Target: BCL2 (Homo sapiens (Human), UniProt P10415)
Experiment: Molecular level activity test of anti-apoptotic protein BCL2 (HTRF, binding to Bim peptide)
Conditions: HTRF, binding of BCL2 to Bim peptide; read-out: BCL2 nM (inhibitory activity, IC50)
Summary of the method: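 Competition binding format: recombinant His-BCL2 and a biotin-Bim peptide are incubated with compound for 1 h, followed by 4 h at room temperature with HTRF detection antibodies.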

Chain of BCL2 (P10415 whole entry): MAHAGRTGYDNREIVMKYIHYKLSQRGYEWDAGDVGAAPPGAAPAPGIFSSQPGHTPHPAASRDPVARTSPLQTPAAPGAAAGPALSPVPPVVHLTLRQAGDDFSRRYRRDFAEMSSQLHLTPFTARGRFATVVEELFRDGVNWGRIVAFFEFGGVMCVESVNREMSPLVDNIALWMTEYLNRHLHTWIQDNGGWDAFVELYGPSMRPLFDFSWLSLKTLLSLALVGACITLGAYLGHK

SMILES | IC50 [µM]
COc1ccc(CN2CCN(C3CC4(CCN(c5cc(Oc6cnc7[nH]ccc7c6)c(C(=O)NS(=O)(=O)c6cc([N+](=O)[O-])c(NCC7(F)CCOCC7)c7c6OCO7)cc5F)CC4)C3)[C@H](c3ccccc3C(C)C)C2)c(F)n1 [compound 130, (R)-2-((1H-pyrrolo[2,3-b]pyrid-5-yl)oxy)-5-fluoro-4-(2-(4-((2-fluoro-6-methoxypyrid-3-yl)methyl)-2-(2-isopropylphenyl)piperazin-1-yl)-7-azaspiro[3.5]non-7-yl)-N-((7-(((4-fluorotetrahydro-2H-pyran-4-yl)methyl)amino)-6-nitrobenzo[d][1,3]dioxocyclopent-4-yl)sulfonyl)benzamide] | < 0.01
COc1ccc(CN2CCN(C3CC4(CCN(c5cc(Oc6cnc7[nH]ccc7c6)c(C(=O)NS(=O)(=O)c6cc([N+](=O)[O-])c(NCC7(F)CCOCC7)c7ocnc67)cc5F)CC4)C3)[C@H](c3ccccc3C(C)C)C2)c(F)n1 [compound 131, (R)-2-((1H-pyrrolo[2,3-b]pyrid-5-yl)oxy)-5-fluoro-4-(2-(4-((2-fluoro-6-methoxypyrid-3-yl)methyl)-2-(2-isopropylphenyl)piperazin-1-yl)-7-azaspiro[3.5]non-7-yl)-N-((7-(((4-fluorotetrahydro-2H-pyran-4-yl)methyl)amino)-6-nitrobenzo[d]yl)sulfonyl)benzamide] | < 0.01
COc1ccc(CN2CCN(C3CC4(CCN(c5cc(Oc6cnc7[nH]ccc7c6)c(C(=O)NS(=O)(=O)c6cc([N+](=O)[O-])c(NCC7(F)CCOCC7)c7c6OCO7)cn5)CC4)C3)[C@H](c3ccccc3C(C)C)C2)cc1 [compound 132, (R)-4-((1H-pyrrolo[2,3-b]pyrid-5-yl)oxy)-N-((7-(((4-fluorotetrahydro-2H-pyran-4-yl)methyl)amino)-6-nitrobenzo[d][1,3]dioxocyclopent-4-yl)sulfonyl)-6-(2-(2-(2-isopropylphenyl)-4-(4-methoxybenzyl)piperazin-1-yl)-7-azaspiro[3.5]non-7-yl) nicotinamide] | < 0.01
COc1ccc(CN2CCN(C3CC4(CCN(c5cc(Oc6cnc7[nH]ccc7c6)c(C(=O)NS(=O)(=O)c6cc([N+](=O)[O-])c(NCC7(F)CCOCC7)c7ocnc67)cn5)CC4)C3)[C@H](c3ccccc3C(C)C)C2)cc1 [compound 133, (R)-4-((1H-pyrrolo[2,3-b]pyridine-5-yl)oxy)-N-((7-(((4-fluorotetrahydro-2H-pyran-4-yl)methyl)amino)-6-nitrobenzo[d]oxazol-4-yl)sulfonyl)-6-(2-(2-(2-isopropylphenyl)-4-(4-methoxybenzyl)piperazin-1-yl)-7-azaspiro[3.5]non-7-yl) nicotinamide] | < 0.01
COc1ccc(CN2CCN(C3CC4(CCN(c5cc(Oc6cnc7[nH]ccc7c6)c(C(=O)NS(=O)(=O)c6cc([N+](=O)[O-])c(NCC7(F)CCOCC7)c7scnc67)cn5)CC4)C3)[C@H](c3ccccc3C(C)C)C2)cc1 [compound 134, (R)-4-((1H-pyrrolo[2,3-b]pyridine-5-yl)oxy)-N-((7-(((4-fluorotetrahydro-2H-pyran-4-yl)methyl)amino)-6-nitrobenzo[d]thiazol-4-yl)sulfonyl)-6-(2-(2-(2-isopropylphenyl)-4-(4-methoxybenzyl)piperazin-1-yl)-7-azaspiro[3.5]non-7-yl) nicotinamide] | < 0.01
COc1ccc(CN2CCN(C3CC4(CCN(c5cc(Oc6cnc7[nH]ccc7c6)c(C(=O)NS(=O)(=O)c6cc([N+](=O)[O-])c(NCC7(F)CCOCC7)c7occc67)cn5)CC4)C3)[C@H](c3ccccc3C(C)C)C2)cc1 [compound 135, (R)-4-((1H-pyrrolo[2,3-b]pyrid-5-yl)oxy)-N-((7-(((4-fluorotetrahydro-2H-pyran-4-yl)methyl)amino)-6-nitrobenzofuran-4-yl)sulfonyl)-6-(2-(2-(2-isopropylphenyl)-4-(4-methoxybenzyl)piperazin-1-yl)-7-azaspiro[3.5]non-7-yl) nicotinamide] | < 0.01

Second part, the compound after the results:

IC50 [µM] | SMILES
< 0.01 | COc1ccc(CN2CCN(C3CC4(CCN(c5cc(Oc6cnc7[nH]ccc7c6)c(C(=O)NS(=O)(=O)c6cc([N+](=O)[O-])c(NCC7(F)CCOCC7)c7c6OCCO7)cn5)CC4)C3)[C@H](c3ccccc3C(C)C)C2)cc1 [compound 136, (R)-4-((1H-pyrrolo[2,3-b]pyrid-5-yl)oxy)-N-((8-(((4-fluorotetrahydro-2H-pyran-4-yl)methyl)amino)-7-nitro-2,3-dihydrobenzo[b][1,4]dioxan-5-yl)sulfonyl)-6-(2-(2-(2-isopropylphenyl)-4-(4-methoxybenzyl)piperazin-1-yl)-7-azaspiro[3.5]non-7-yl) nicotinamide]
< 0.01 | COc1ccc(CN2CCN(C3CC4(CCN(c5cc(Oc6cnc7[nH]ccc7c6)c(C(=O)NS(=O)(=O)c6cc([N+](=O)[O-])c(NC[C@H]7CC[C@](C)(O)CC7)c7c6OCO7)cn5)CC4)C3)[C@H](c3ccccc3C(C)C)C2)cc1 [compound 137, 4-((1H-pyrrolo[2,3-b]pyrid-5-yl)oxy)-N-((7-((((1r, 4r)-4-hydroxy-4-methylcyclohexyl)methyl)amino)-6-nitrobenzo[d][1,3]dioxocyclopent-4-yl)sulfonyl)-6-(2-((R)-2-(2-isopropylphenyl)-4-(4-methoxybenzyl)piperazin-1-yl)-7-azaspiro[3.5]non-7-yl) nicotinamide]
< 0.01 | COc1ccc(CN2CCN(C3CC4(CCN(c5cc(Oc6cnc7[nH]ccc7c6)c(C(=O)NS(=O)(=O)c6cc([N+](=O)[O-])c(NC[C@H]7CC[C@](C)(O)CC7)c7ocnc67)cn5)CC4)C3)[C@H](c3ccccc3C(C)C)C2)cc1 [compound 138, 4-((1H-pyrrolo[2,3-b]pyrid-5-yl)oxy)-N-((7-((((1r, 4r)-4-hydroxy-4-methylcyclohexyl)methyl)amino)-6-nitrobenzo[d]oxazol-4-yl)sulfonyl)-6-(2-((R)-2-(2-isopropylphenyl)-4-(4-methoxybenzyl)piperazin-1-yl)-7-azaspiro[3.5]non-7-yl) nicotinamide]
< 0.01 | COc1ccc(CN2CCN(C3CC4(CCN(c5cc(Oc6cnc7[nH]ccc7c6)c(C(=O)NS(=O)(=O)c6cc([N+](=O)[O-])c(NC[C@H]7CC[C@](C)(O)CC7)c7occc67)cn5)CC4)C3)[C@H](c3ccccc3C(C)C)C2)cc1 [compound 139, 4-((1H-pyrrolo[2,3-b]pyrid-5-yl)oxy)-N-((7-((((1r, 4r)-4-hydroxy-4-methylcyclohexyl)methyl)amino)-6-nitrobenzofuran-4-yl)sulfonyl)-6-(2-((R)-2-(2-isopropylphenyl)-4-(4-methoxybenzyl)piperazin-1-yl)-7-azaspiro[3.5]non-7-yl) nicotinamide]
< 0.01 | COc1ccc(CN2CCN(C3CC4(CCN(c5cc(Oc6cnc7[nH]ccc7c6)c(C(=O)NS(=O)(=O)c6cc([N+](=O)[O-])c(NC[C@H]7CC[C@](C)(O)CC7)c7scnc67)cn5)CC4)C3)[C@H](c3ccccc3C(C)C)C2)cc1 [compound 140, 4-((1H-pyrrolo[2,3-b]pyrid-5-yl)oxy)-N-((7-((((1r, 4r)-4-hydroxy-4-methylcyclohexyl)methyl)amino)-6-nitrobenzo[d]thiazol-4-yl)sulfonyl)-6-(2-((R)-2-(2-isopropylphenyl)-4-(4-methoxybenzyl)piperazin-1-yl)-7-azaspiro[3.5]non-7-yl) nicotinamide]
< 0.01 | COc1ccc(CN2CCN(C3CC4(CCN(c5cc(Oc6cnc7[nH]ccc7c6)c(C(=O)NS(=O)(=O)c6cc([N+](=O)[O-])c(NCC7(F)CCOCC7)c7n[nH]c(=O)cc67)cc5F)CC4)C3)[C@H](c3ccccc3C(C)C)C2)cc1 [compound 141, (R)-2-((1H-pyrrolo[2,3-b]pyrid-5-yl)oxy)-5-fluoro-N-((8-(((4-fluorotetrahydro-2H-pyran-4-yl)methyl)amino)-7-nitro-3-oxo-2,3-misoline-5-yl)sulfonyl)-4-(2-(2-(2-isopropylphenyl)-4-(4-methoxybenzyl)piperazin-1-yl)-7-azaspiro[3.5]non-7-yl)benzamide]
< 0.01 | COc1ccc(CN2CCN(C3CC4(CCN(c5cc(Oc6cnc7[nH]ccc7c6)c(C(=O)NS(=O)(=O)c6cc([N+](=O)[O-])c(NCC7(F)CCOCC7)c7c6OCC7)cc5F)CC4)C3)[C@H](c3ccccc3C(C)C)C2)cc1 [compound 142, (R)-2-((1H-pyrrolo[2,3-b]pyrid-5-yl)oxy)-5-fluoro-N-((4-(((4-fluorotetrahydro-2H-pyran-4-yl)methyl)amino)-5-nitro-2,3-dihydrobenzofuran-7-yl)sulfonyl)-4-(2-(2-(2-isopropylphenyl)-4-(4-methoxybenzyl)piperazin-1-yl)-7-azaspiro[3.5]non-7-yl)benzamide]
< 0.01 | COc1ccc(CN2CCN(C3CC4(CCN(c5cc(Oc6cnc7[nH]ccc7c6)c(C(=O)NS(=O)(=O)c6cc([N+](=O)[O-])c(NCC7(F)CCOCC7)c7ccoc67)cc5F)CC4)C3)[C@H](c3ccccc3C(C)C)C2)cc1 [compound 143, (R)-2-((1H-pyrrolo[2,3-b]pyrid-5-yl)oxy)-5-fluoro-N-((4-(((4-fluorotetrahydro-2H-pyran-4-yl)methyl)amino)-5-nitrobenzofuran-7-yl)sulfonyl)-4-(2-(2-(2-isopropylphenyl)-4-(4-methoxybenzyl)piperazin-1-yl)-7-azaspiro[3.5]non-7-yl)benzamide]
< 0.01 | COc1ccc(CN2CCN(C3CC4(CCN(c5ccc(C(=O)NS(=O)(=O)c6cc([N+](=O)[O-])c(NCC7(F)CCOCC7)c7c6OCO7)c(Oc6cnc7[nH]ccc7c6)c5)CC4)C3)[C@H](c3ccccc3C(C)C)C2)cc1 [compound 147, (R)-2-((1H-pyrrolo[2,3-b]pyrid-5-yl)oxy)-N-((7-(((4-fluorotetrahydro-2H-pyran-4-yl)methyl)amino)-6-nitrobenzo[d][1,3]dioxocyclopent-4-yl)sulfonyl)-4-(2-(2-(2-isopropylphenyl)-4-(4-methoxybenzyl)piperazin-1-yl)-7-azaspiro[3.5]non-7-yl)benzamide]
